Reference: publication PMC10005185, “Structure-guided engineering of a receptor-agonist pair for inducible activation of the ABA adaptive response to drought” (Science Advances, 2023)
Like-named read-outs stand apart in the source and are kept apart here. Blank lines part the entries; values can stand above or below the compound they belong to.

What was measured:
ABI1 with AtPYL1 = target: T1, ABI1 with AtPYL1 (Arabidopsis thaliana, UniProt Q8VZS8); experiment: PP2C inhibition assay, ABI1 with AtPYL1; format: biochemical
T1 construct: His; made in house
T1 sequence (Q8VZS8 whole entry): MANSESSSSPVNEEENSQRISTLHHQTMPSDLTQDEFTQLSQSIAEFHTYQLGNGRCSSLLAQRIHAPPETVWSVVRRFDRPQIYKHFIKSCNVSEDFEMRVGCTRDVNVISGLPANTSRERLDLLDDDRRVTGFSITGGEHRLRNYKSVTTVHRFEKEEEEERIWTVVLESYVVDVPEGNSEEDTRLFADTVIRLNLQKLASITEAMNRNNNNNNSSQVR
T1 sequence (P49597 whole entry partner): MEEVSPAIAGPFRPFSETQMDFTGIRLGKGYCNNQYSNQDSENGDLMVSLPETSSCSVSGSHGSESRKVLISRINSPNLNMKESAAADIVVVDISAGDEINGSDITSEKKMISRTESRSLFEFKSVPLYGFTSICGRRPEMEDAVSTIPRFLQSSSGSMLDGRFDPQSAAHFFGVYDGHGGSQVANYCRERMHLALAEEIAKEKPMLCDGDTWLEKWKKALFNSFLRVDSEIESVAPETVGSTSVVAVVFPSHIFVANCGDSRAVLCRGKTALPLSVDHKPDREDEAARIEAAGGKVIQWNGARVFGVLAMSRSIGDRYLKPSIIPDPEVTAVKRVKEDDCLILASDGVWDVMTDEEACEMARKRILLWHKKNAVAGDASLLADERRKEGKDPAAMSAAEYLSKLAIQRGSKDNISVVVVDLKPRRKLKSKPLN
Description: (§1) His-tagged receptors and phosphatases were purified using nickel–nitrilotriacetic acid (Ni-NTA) affinity chromatography. Protein integrity was analyzed by SDS–polyacrylamide gel electrophoresis, followed by InstantBlue staining. Phosphatase activity was measured using p-Nitrophenyl Phosphate (pNPP) (25 mM) as substrate, 10 mM MnCl2,1 μM PP2C, and 2 μM of the indicated receptors. Proteins were incubated with the ligands for 10 min at room temperature. pNPP was then added to start the reactions, and the absorbance at 405 nm was monitored for 20 min in a ViktorX5 plate reader. Assays were repeated twice. For dose-response experiments, IC50 values were obtained with GraphPad Prism 9 using a nonlinear regression curve fit. Each ligand concentration was tested in triplicate. Phosphatase activity of ABI1 was measured using RRA(phosphoT)VA peptide as a substrate, as described ([27]). […]
(§2) (D) Dose response analysis of iSB09 or ABA-dependent inhibition of ABI1 (blue and black lines, respectively) in presence of either AtPYL1 or AtPYR1. Values (average of duplicates) show PP2C activity after incubation with the indicated concentration of ligand and receptor at 1:2 ratio (1 µM phosphatase:2 µM receptor). […]
(§3) whereas with AtPYR1 was 200 nM and 213 nM, for ABA and iSB09, respectively. Ligands were assayed

ABI1 with AtPYR1 = target: T2, ABI1 with AtPYR1 (Arabidopsis thaliana, UniProt O49686); experiment: PP2C inhibition assay, ABI1 with AtPYR1; format: biochemical
T2 construct: His; made in house
T2 sequence (O49686 whole entry): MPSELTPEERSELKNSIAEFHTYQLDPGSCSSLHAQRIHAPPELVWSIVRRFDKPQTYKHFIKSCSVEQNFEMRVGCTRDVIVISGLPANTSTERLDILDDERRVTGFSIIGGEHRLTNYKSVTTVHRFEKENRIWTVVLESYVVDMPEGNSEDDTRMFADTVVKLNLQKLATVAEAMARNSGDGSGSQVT
T2 sequence (P49597 whole entry partner): as the sequence (P49597 whole entry partner) above
Description: as §1, §2, §3

[1] = test system: Nicotiana benthamiana WT plants; experiment: IR thermography of leaf temperature, N. benthamiana; format: in vivo; details: nontransformed leaves, 24 hours after spraying, 50 μM ABA or 100 μM iSB07 or iSB09, compared to mock
Description: IR images were taken using a FLIR […] thermocamera 1 day after the treatment (for N. benthamiana) or 2 and 5 days (for S. lycopersicum). Quantification was performed using the FLIR tools software on fully expanded leaves by analyzing 10 sections per leaf. At least six plants per genotype and treatment were analyzed in each experiment. Experiments were repeated twice. The average plant temperature ± SD of all the plants for each treatment and genotype was calculated and used to report the increase in temperature produced by each treatment. Statistical comparisons among genotypes were performed by either pairwise t tests or one-way ANOVA.

[2] = test system: Arabidopsis thaliana seeds (WT Col-0, CsPYL1 and CsPYL1^5m lines); experiment: Seed germination assay; format: in vivo; details: Arabidopsis thaliana
Description: For seed germination assays, seeds were stratified in the dark at 4°C for 3 days. Approximately 100 seeds of each genotype were sown on MS plates supplemented with six different ligand concentrations. The experiments were repeated three times. To score seed germination, radical emergence was analyzed at 24 hours after sowing.

AtHAB1ΔN with CsPYL1^5m = experiment: PP2C inhibition assay, HAB1 with CsPYL1^5m; format: biochemical, Citrus sinensis (CsPYL1^5m); Arabidopsis thaliana (HAB1)
Description: His-tagged receptors and phosphatases were purified using nickel–nitrilotriacetic acid (Ni-NTA) affinity chromatography. Protein integrity was analyzed by SDS–polyacrylamide gel electrophoresis, followed by InstantBlue staining. Phosphatase activity was measured using p-Nitrophenyl Phosphate (pNPP) (25 mM) as substrate, 10 mM MnCl2,1 μM PP2C, and 2 μM of the indicated receptors. […] Assays were repeated twice. For dose-response experiments, IC50 values were obtained with GraphPad Prism 9 using a nonlinear regression curve fit. Each ligand concentration was tested in triplicate. Phosphatase activity of ABI1 was measured using RRA(phosphoT)VA peptide as a substrate, as described ([27]).

AtPYL5:ΔNHAB1 = AtPYL5:ΔNHAB1 (Arabidopsis thaliana, UniProt Q9FLB1); experiment: Native red electrophoresis of ligand-induced ternary complex
Sequence of AtPYL5:ΔNHAB1 (Q9FLB1 whole entry, stated change not applied): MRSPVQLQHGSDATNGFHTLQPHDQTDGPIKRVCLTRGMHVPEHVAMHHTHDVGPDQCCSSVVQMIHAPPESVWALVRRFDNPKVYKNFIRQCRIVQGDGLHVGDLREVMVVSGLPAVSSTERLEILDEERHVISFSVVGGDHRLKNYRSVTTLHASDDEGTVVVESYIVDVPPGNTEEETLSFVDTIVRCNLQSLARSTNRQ
Description: Electrophoresis was performed at a constant current of 25 mA for 150 min at 4°C. Proteins were detected in gel by InstantBlue staining, and band quantification was performed using the ImageJ software. To obtain apparent Kd values, the proportion of ternary complex formed (fraction bound) and the ABA or iSB09 free concentration in each lane were calculated and plotted as represented in Fig. 3 (E and F). Then, the dose-response curves were fitted to the classical Hill equation using the GraphPad Prism software.

[3] = test system: Arabidopsis thaliana seedlings (WT Col-0, overexpressing lines, receptor mutants); details: pyr1 pyl1 double mutant ref 36; cited from earlier work
ΔNHAB1 with AtPYL1 = target: T3, ΔNHAB1 with AtPYL1 (Arabidopsis thaliana, UniProt Q8VZS8); details: AtPYL1 ref 45; cited from earlier work
T3 construct: His; made in house
T3 sequence (Q8VZS8 whole entry, stated change not applied): as the sequence (Q8VZS8 whole entry) above

ΔNHAB1 with AtPYL10 = target: T4, ΔNHAB1 with AtPYL10 (Arabidopsis thaliana, UniProt Q8H1R0); details: AtPYL10 ref 45; cited from earlier work
T4 construct: His; made in house
T4 sequence (Q8H1R0 whole entry, stated change not applied): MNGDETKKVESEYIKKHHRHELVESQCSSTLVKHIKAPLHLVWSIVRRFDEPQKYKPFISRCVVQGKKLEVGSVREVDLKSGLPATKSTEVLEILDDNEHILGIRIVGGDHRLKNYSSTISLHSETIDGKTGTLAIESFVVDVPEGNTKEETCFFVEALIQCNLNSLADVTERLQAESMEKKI

HAB1 with AtPYL4 = target: T5, HAB1 with AtPYL4 (Arabidopsis thaliana, UniProt O80920); experiment: PP2C inhibition assay, HAB1 with AtPYL4; format: biochemical; details: 1 µM phosphatase:2 µM receptor
T5 construct: His; made in house
T5 sequence (Q9CAJ0 179-511): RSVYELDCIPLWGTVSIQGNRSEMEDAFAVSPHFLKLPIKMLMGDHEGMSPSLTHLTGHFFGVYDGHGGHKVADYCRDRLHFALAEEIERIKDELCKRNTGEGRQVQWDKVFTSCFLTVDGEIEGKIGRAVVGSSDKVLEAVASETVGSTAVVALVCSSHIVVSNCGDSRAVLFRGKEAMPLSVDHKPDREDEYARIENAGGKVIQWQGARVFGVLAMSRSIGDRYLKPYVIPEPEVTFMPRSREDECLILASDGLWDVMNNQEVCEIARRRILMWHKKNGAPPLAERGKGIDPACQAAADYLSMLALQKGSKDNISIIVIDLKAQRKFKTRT
T5 sequence (O80920 whole entry): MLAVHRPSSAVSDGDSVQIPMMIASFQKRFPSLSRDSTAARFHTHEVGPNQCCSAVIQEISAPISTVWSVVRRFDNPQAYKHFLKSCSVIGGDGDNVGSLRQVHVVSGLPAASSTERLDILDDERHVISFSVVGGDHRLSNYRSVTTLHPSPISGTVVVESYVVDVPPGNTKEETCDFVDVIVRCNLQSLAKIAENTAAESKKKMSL
Description: His-tagged receptors and phosphatases were purified using nickel–nitrilotriacetic acid (Ni-NTA) affinity chromatography. Protein integrity was analyzed by SDS–polyacrylamide gel electrophoresis, followed by InstantBlue staining. Phosphatase activity was measured using p-Nitrophenyl Phosphate (pNPP) (25 mM) as substrate, 10 mM MnCl2,1 μM PP2C, and 2 μM of the indicated receptors. Proteins were incubated with the ligands for 10 min at room temperature. pNPP was then added to start the reactions, and the absorbance at 405 nm was monitored for 20 min in a ViktorX5 plate reader. Assays were repeated twice. For dose-response experiments, IC50 values were obtained with GraphPad Prism 9 using a nonlinear regression curve fit. Each ligand concentration was tested in triplicate. Phosphatase activity of ABI1 was measured using RRA(phosphoT)VA peptide as a substrate, as described ([27]).
(§4) Fig. S6. QB lacks bioactivity in tomato whereas iSB09 is
(§5) (A) Quantification of the leaf temperature difference at 2 and 5 days after spraying tomato plants with 0.1 % DMSO
(§6) (mock- treated control), 10 µM iSB09 or 10 µM QB.
Asterisk indicates p<0.001 (Student’s t test). Values show individual points and average ± SD (n=4 replicates for mock and chemical treatments). (B) IR-images of representative tomato plants at 2 days after being treated with 0.1 % DMSO […]

tomato plants = experiment: IR thermography of leaf temperature, tomato; format: in vivo, Solanum lycopersicum; details: 10 μM, 2 and 5 days after spraying
Description: For experiments using N. benthamiana or S. lycopersium, 1-month-old plants grown under long-day conditions (16-hour light/8-hour dark) were sprayed with 10 mM MES (pH 5.7) + 0.02% Silwet L77 supplemented with either 50 μM ABA, or the indicated concentration of iSB07/iSB09 or 0.1% DMSO as a mock-treated control. IR images were taken using a FLIR E95 thermocamera 1 day after the treatment (for N. benthamiana) or 2 and 5 days (for S. lycopersicum). Quantification was performed using the FLIR tools software on fully expanded leaves by analyzing 10 sections per leaf. At least six plants per genotype and treatment were analyzed in each experiment. Experiments were repeated twice. The average plant temperature ± SD of all the plants for each treatment and genotype was calculated and used to report the increase in temperature produced by each treatment. Statistical comparisons among genotypes were performed by either pairwise t tests or one-way ANOVA.
as §4, §5, §6
Asterisk indicates p<0.001 (Student’s t test). Values show individual points and average ± SD (n=4 replicates for mock and chemical treatments). (B) IR-images of representative tomato plants at 2 days after being treated with 0.1 % DMSO
Photographs were taken with white light (leaf panel) or infrared thermography (right panel) using the camera FLIR
HAB1 phosphatase activity in presence of PYL4. IC50 values for iSB09 or QB-dependent inhibition of HAB1 by AtPYL4. Values (average of duplicates) show PP2C activity after incubation with the indicated concentration of ligand and AtPYL4 at 1:2 ratio (1 µM phosphatase:2 µM receptor).
(1 picture or pasted object on this page, not shown here)

[4] = test system: MAPKKK18 promoter-LUC reporter; experiment: pMAPKKK18-LUC luciferase reporter assay; format: in vivo, Arabidopsis thaliana; details: 100 μM, 6 hours
Description: […]18-LUC seedlings were grown in 24-well plates (25 to 35 seeds per well) filled with 1 ml of liquid MS medium for 7 days. MS medium was replaced with fresh medium supplemented with 100 μM D-luciferin, potassium salt (GoldBio), and the indicated treatments with iSB07, iSB09, or ABA. Seedlings were incubated for 6 hours, and luminescence was recorded with a LAS-3000 imager (Fujifilm) equipped with a charge-coupled device camera using 2-min exposures. Eight-bit images were transformed in rainbow false color and quantified using Fiji. The experiment was repeated at least twice.

[5] = test system: Arabidopsis thaliana plants; experiment: IR thermography of leaf temperature, arabidopsis; format: in vivo; details: transgenic CsPYL1^5m lines and Col-0, 50 μM, 24 hours after spraying
Description: A. thaliana plants were grown in a controlled environment growth chamber at 21°/19°C under 8-hour light/16-hour dark photoperiod at 100 μE m^−2 s^−1. IR thermography images of rosette leaves were acquired with a thermal camera FLIR E95 equipped with a 42° lens, 24 hours after spraying 6-week-old plants with 10 mM MES (pH 5.7) + 0.02% Silwet L-77 plus 50 μM ligand or 0.1% DMSO as a control. Images were processed and quantified with the FLIR tools software. The average temperature of 15 different sections taken from four to six leaves per plant was used for quantification. At least six plants per genotype were analyzed, and the experiments were repeated twice. Statistical analysis was performed using GraphPad Prism 9. T test or ANOVA analysis was carried out to identify statistical significance among datasets.

[6] = test system: Arabidopsis thaliana seedlings; experiment: Root growth assay; format: in vivo; details: 10 μM
Description: Seedlings were grown on vertically oriented Murashige and Skoog (MS) plates for 4 to 5 days. Afterward, seedlings were transferred to MS supplemented with the indicated concentrations of the different ligands and kept on vertical orientation. Ten days later, the plates were scanned on a flatbed scanner to produce image files suitable for quantitative analysis of root growth using the NIH Image software ImageJ. The experiment was performed in triplicate (n = 13 to 16). Statistical comparisons were performed by either pairwise t tests or one-way ANOVA using GraphPad Prism 9.

[7] = test system: Arabidopsis thaliana plants (WT Col-0, CsPYL1^5m lines); experiment: Whole-plant gas exchange, stomatal conductance (Gs); format: in vivo
Description: A. thaliana seeds were planted in specific gas exchange pots, where above- and below-ground parts can be separated by glass into 2:1 (v:v) peat:vermiculite mixture. The plants were grown in growth chambers (Snijders Scientific, Drogenbos, Belgium) at 12/12 photoperiod, 23/18°C temperature, 160 μmol m^−2 s^−1 light, and 70% relative humidity and were 23 to 28 days old during gas exchange experiments. Whole-rosette stomatal conductances were recorded with an eight-chamber custom-built temperature-controlled gas exchange device as described before ([72]). Plants were inserted into the measurement cuvettes and allowed to stabilize at standard conditions: ambient CO2, ~420 ppm; air temperature, 24° ± 0.5°C; light, 160 μmol m^−2 s^−1; relative air humidity, 66 ± 3%. For sprayings, plants were removed from gas exchange cuvettes, sprayed with respective solutions, and put back into the cuvettes for stomatal conductance recordings for 56 min. To check the long-term effect of compounds on plants, stomatal conductance measurements were performed about 24 and 48 hours after sprayings. In the meantime, plants were kept in growth chambers as described above. Photographs of plants were taken after the experiment, and leaf rosette area was calculated using ImageJ 1.37v [National Institutes of Health (NIH), USA]. Stomatal conductance for water vapor was calculated with a custom-written program as described ([72]).

Compound: CC1=CC(=O)CC(C)(C)[C@@]1(O)/C=C/C(C)=C\C(=O)O [ABA, abscisic acid, reference compound]
IC50 (ABI1 with AtPYL1): 274 nM | IC50 (ABI1 with AtPYR1): 200 nM | leaf temperature by thermal imaging [1]: increased leaf temperature | IC50 ([2]; read-out: Germination IC50, WT Col-0): 216 nM | IC50 ([2]; read-out: Germination IC50, line expressing CsPYL1): 304 nM | IC50 ([2]; read-out: Germination IC50, line expressing CsPYL1^5m): 458 nM | IC50 of ABA for CsPYL1^5m compared to WT CsPYL1 (AtHAB1ΔN with CsPYL1^5m): fourfold increase | Kd (AtPYL5:ΔNHAB1): 2100 nM

Compound: CCCN1C(=O)CCc2cc(NS(=O)(=O)Cc3c(F)c(F)c(C)c(F)c3F)ccc21 [AMF4]
effect in pyr1 pyl1 double mutant [3]: lack effect

Compound: CCCN1C(=O)CCc2cc(NS(=O)(=O)Cc3ccc(C)cc3)ccc21 [QB, quinabactin]
receptor activation (ΔNHAB1 with AtPYL1): activates AtPYL1 | receptor activation (ΔNHAB1 with AtPYL10): not AtPYL10 | IC50 (HAB1 with AtPYL4): 1880 nM | effect in pyr1 pyl1 double mutant [3]: lack effect | bioactivity in tomato (leaf temperature) (tomato plants): lacked bioactivity

induction of LUC relative to iSB09 [4]: approximately fivefold lower
Compound: Cc1cc(=O)n(C)c2ccc(CNS(=O)(=O)c3ccccc3)cc12 [iSB07]
leaf temperature by thermal imaging [1]: increased leaf temperature | IC50 ([2]; WT Col-0, read-out: Germination IC50): 12700 nM | IC50 ([2]; line expressing CsPYL1, read-out: Germination IC50): 4030 nM | IC50 ([2]; line expressing CsPYL1^5m, read-out: Germination IC50): 943 nM | leaf temperature by thermal imaging [5]: increased leaf temperature | inhibition of root growth ([6]; CsPYL1^5m lines): marked inhibition | inhibition of root growth ([6]; WT plants): did not significantly inhibit | reduction of stomatal conductance (Gs) ([7]; WT, spraying with 20 μM): not effective | reduction of Gs 24 and 48 hours after spraying ([7]; transgenic lines, 5 μM): nonsignificant
